Structures are written as SMILES.

This assay has as its target acetyl-CoA carboxylase (TbACC) (Trypanosoma brucei, UniProt Q57YR7). In kind it is biochemical.

A word on the EC50: it is the midpoint of the concentration-response curve. Lower therefore signals a more potent agent. `CC(Oc1ccc(Oc2ncc(C(F)(F)F)cc2Cl)cc1)C(=O)O` (stereo not shown) [haloxyfop] returned an EC50 of 67 µM. This counts as double-digit micromolar.

These data come from paper PMC3264756 (2011).
